# Data published in patent US20100160454A1, “ANTIMICROBIAL AGENTS, COMPOSITIONS AND PRODUCTS CONTAINING THE SAME, AND METHODS OF USING THE COMPOSITIONS AND PRODUCTS” (Eastman Chemical Company, priority 2008, published 2010).
# Columns and labels:
# Experiment in all cases: Microbiological challenge testing in BPW broth, graded subculture counts
# Type in all cases: cell-based
# Aeromonas sp. Wild type = test system: Aeromonas sp. Wild type
# Procedure, shortened: (§1)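 Strains grown in TSB with 1% dextrose at 35 °C for ≥96 h. Inoculum added to BPW broth with 1% dextrose, with or without test material (w/v), to 10^5–10^6 CFU/mL at time zero. Counts by spread-plating serial 1:10 dilutions in pH 7.2 phosphate buffer on PCA, incubated at 35 °C for ≥48 h.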
# [1] = test system: Bacillus subtilis Wild type
# Procedure, shortened: as §1
# [2] = test system: Burkholderia cepacia Wild type; conditions: B. cepacia
# Procedure, shortened: as §1
# [3] = test system: Pseudomonas aeruginosa Wild type; conditions: P. aeruginosa
# Procedure, shortened: as §1
# [4] = test system: Staphylococcus aureus ATCC 25923; conditions: S. aureus
# Procedure, shortened: as §1
# [5] = test system: Streptococcus mutans ATCC 35668
# Procedure, shortened: as §1
smiles,measurement,setting,value
"OCC1CCCCC1CO (stereo not drawn) [1,2-CHDM, 1,2-cyclohexanedimethanol]","Aeromonas sp growth grade, 3 day",Aeromonas sp. Wild type; 0.5% weight/volume,"5 (More than 10,000 colonies estimated (thus more than 100,000 CFU/mL))"
same,"Aeromonas sp growth grade, 14 day",Aeromonas sp. Wild type; 0.5% weight/volume,"4 (1000 to 10,000 colonies countable (thus 10,000 CFU/mL to 100,000 CFU/mL))"
same,"Aeromonas sp growth grade, 30 day",Aeromonas sp. Wild type; 0.5% weight/volume,"4 (1000 to 10,000 colonies countable (thus 10,000 CFU/mL to 100,000 CFU/mL))"
same,"Aeromonas sp growth grade, 3 day",Aeromonas sp. Wild type; 1.25% weight/volume,"3 (100 to 1000 colonies (thus 1000 to 10,000 CFU/mL))"
same,"Aeromonas sp growth grade, 14 day",Aeromonas sp. Wild type; 1.25% weight/volume,2 (52 to 100 colonies counted (thus 520 to 1000 CFU/mL))
same,"Aeromonas sp growth grade, 30 day",Aeromonas sp. Wild type; 1.25% weight/volume,1 (0 to 51 colonies counted (thus 10 to 510 CFU/mL based on 0.1-mL sample))
same,"Aeromonas sp growth grade, 3 day",Aeromonas sp. Wild type; 2.5% weight/volume,0
same,"Aeromonas sp growth grade, 14 day",Aeromonas sp. Wild type; 2.5% weight/volume,1 (0 to 51 colonies counted (thus 10 to 510 CFU/mL based on 0.1-mL sample))
same,"Aeromonas sp growth grade, 30 day",Aeromonas sp. Wild type; 2.5% weight/volume,0
same,"Aeromonas sp growth grade, 3 day",Aeromonas sp. Wild type; 5.0% weight/volume,0
same,"Aeromonas sp growth grade, 14 day",Aeromonas sp. Wild type; 5.0% weight/volume,0
same,"Aeromonas sp growth grade, 30 day",Aeromonas sp. Wild type; 5.0% weight/volume,0
same,"B. subtillis growth grade, 3 day",[1]; 0.5% weight/volume,"4 (1000 to 10,000 colonies countable (thus 10,000 CFU/mL to 100,000 CFU/mL))"
same,"B. subtillis growth grade, 14 day",[1]; 0.5% weight/volume,"3 (100 to 1000 colonies (thus 1000 to 10,000 CFU/mL))"
same,"B. subtillis growth grade, 30 day",[1]; 0.5% weight/volume,"4 (1000 to 10,000 colonies countable (thus 10,000 CFU/mL to 100,000 CFU/mL))"
same,"B. subtillis growth grade, 3 day",[1]; 1.25% weight/volume,2 (52 to 100 colonies counted (thus 520 to 1000 CFU/mL))
same,"B. subtillis growth grade, 14 day",[1]; 1.25% weight/volume,1 (0 to 51 colonies counted (thus 10 to 510 CFU/mL based on 0.1-mL sample))
same,"B. subtillis growth grade, 30 day",[1]; 1.25% weight/volume,1 (0 to 51 colonies counted (thus 10 to 510 CFU/mL based on 0.1-mL sample))
same,"B. subtillis growth grade, 3 day",[1]; 2.5% weight/volume,0
same,"B. subtillis growth grade, 14 day",[1]; 2.5% weight/volume,0
same,"B. subtillis growth grade, 30 day",[1]; 2.5% weight/volume,0
same,"B. subtillis growth grade, 3 day",[1]; 5.0% weight/volume,0
same,"B. subtillis growth grade, 14 day",[1]; 5.0% weight/volume,0
same,"B. subtillis growth grade, 30 day",[1]; 5.0% weight/volume,0
same,Grade,"[2]; 0.5% (wt/vol), 3 day","4 (1000 to 10,000 colonies countable (thus 10,000 CFU/mL to 100,000 CFU/mL))"
same,Grade,"[2]; 0.5% (wt/vol), 14 day","4 (1000 to 10,000 colonies countable (thus 10,000 CFU/mL to 100,000 CFU/mL))"
same,Grade,"[2]; 0.5% (wt/vol), 30 day","4 (1000 to 10,000 colonies countable (thus 10,000 CFU/mL to 100,000 CFU/mL))"
same,Grade,"[2]; 1.25% (wt/vol), 3 day",1 (0 to 51 colonies counted (thus 10 to 510 CFU/mL based on 0.1-mL sample))
same,Grade,"[2]; 1.25% (wt/vol), 14 day",0
same,Grade,"[2]; 1.25% (wt/vol), 30 day",0
same,Grade,"[2]; 2.5% (wt/vol), 3 day",0
same,Grade,"[2]; 2.5% (wt/vol), 14 day",0
same,Grade,"[2]; 2.5% (wt/vol), 30 day",0
same,Grade,"[2]; 5.0% (wt/vol), 3 day",0
same,Grade,"[2]; 5.0% (wt/vol), 14 day",0
same,Grade,"[2]; 5.0% (wt/vol), 30 day",0
same,Grade,"[3]; 0.5% (wt/vol), 3 day","4 (1000 to 10,000 colonies countable (thus 10,000 CFU/mL to 100,000 CFU/mL))"
same,Grade,"[3]; 0.5% (wt/vol), 13 day","4 (1000 to 10,000 colonies countable (thus 10,000 CFU/mL to 100,000 CFU/mL))"
same,Grade,"[3]; 0.5% (wt/vol), 30 day","4 (1000 to 10,000 colonies countable (thus 10,000 CFU/mL to 100,000 CFU/mL))"
same,Grade,"[3]; 1.25% (wt/vol), 3 day",2.7
same,Grade,"[3]; 1.25% (wt/vol), 13 day",1 (0 to 51 colonies counted (thus 10 to 510 CFU/mL based on 0.1-mL sample))
same,Grade,"[3]; 1.25% (wt/vol), 30 day","3 (100 to 1000 colonies (thus 1000 to 10,000 CFU/mL))"
same,Grade,"[3]; 2.5% (wt/vol), 3 day",1 (0 to 51 colonies counted (thus 10 to 510 CFU/mL based on 0.1-mL sample))
same,Grade,"[3]; 2.5% (wt/vol), 13 day",0
same,Grade,"[3]; 2.5% (wt/vol), 30 day",0
same,Grade,"[3]; 5.0% (wt/vol), 3 day",0
same,Grade,"[3]; 5.0% (wt/vol), 13 day",0
same,Grade,"[3]; 5.0% (wt/vol), 30 day",0
same,Grade,"[4]; 0.5% (wt/vol), 3 day","4 (1000 to 10,000 colonies countable (thus 10,000 CFU/mL to 100,000 CFU/mL))"
same,Grade,"[4]; 0.5% (wt/vol), 14 day","4 (1000 to 10,000 colonies countable (thus 10,000 CFU/mL to 100,000 CFU/mL))"
same,Grade,"[4]; 0.5% (wt/vol), 30 day","4 (1000 to 10,000 colonies countable (thus 10,000 CFU/mL to 100,000 CFU/mL))"
same,Grade,"[4]; 1.25% (wt/vol), 3 day",3.3
same,Grade,"[4]; 1.25% (wt/vol), 14 day",2.7
same,Grade,"[4]; 1.25% (wt/vol), 30 day","4 (1000 to 10,000 colonies countable (thus 10,000 CFU/mL to 100,000 CFU/mL))"
same,Grade,"[4]; 2.5% (wt/vol), 3 day",0
same,Grade,"[4]; 2.5% (wt/vol), 14 day",0
same,Grade,"[4]; 2.5% (wt/vol), 30 day",0
same,Grade,"[4]; 5.0% (wt/vol), 3 day",0
same,Grade,"[4]; 5.0% (wt/vol), 14 day",0
same,Grade,"[4]; 5.0% (wt/vol), 30 day",0
same,"S. mutans growth grade, 3 day",[5]; 0.5% weight/volume,"4 (1000 to 10,000 colonies countable (thus 10,000 CFU/mL to 100,000 CFU/mL))"
same,"S. mutans growth grade, 13 day",[5]; 0.5% weight/volume,"4 (1000 to 10,000 colonies countable (thus 10,000 CFU/mL to 100,000 CFU/mL))"
same,"S. mutans growth grade, 30 day",[5]; 0.5% weight/volume,"4 (1000 to 10,000 colonies countable (thus 10,000 CFU/mL to 100,000 CFU/mL))"
same,"S. mutans growth grade, 3 day",[5]; 1.25% weight/volume,2 (52 to 100 colonies counted (thus 520 to 1000 CFU/mL))
same,"S. mutans growth grade, 13 day",[5]; 1.25% weight/volume,0
same,"S. mutans growth grade, 30 day",[5]; 1.25% weight/volume,0
same,"S. mutans growth grade, 3 day",[5]; 2.5% weight/volume,1 (0 to 51 colonies counted (thus 10 to 510 CFU/mL based on 0.1-mL sample))
same,"S. mutans growth grade, 13 day",[5]; 2.5% weight/volume,0
same,"S. mutans growth grade, 30 day",[5]; 2.5% weight/volume,0
same,"S. mutans growth grade, 3 day",[5]; 5.0% weight/volume,0
same,"S. mutans growth grade, 13 day",[5]; 5.0% weight/volume,0
same,"S. mutans growth grade, 30 day",[5]; 5.0% weight/volume,0
